System: Mitochondria-located protein genes
Assay: DNA chip mRNA expression in yeast, mitochondria-located protein genes (Table 2)
Type: cell-based, Saccharomyces cerevisiae S288C
Settings: cells incubated two hours with the chemical substance
How it was run: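 Expression change after 2 h toxicant exposure (growth-inhibiting, sub-lethal) of log-phase S. cerevisiae S288C at 25° C. Oligo-dT-purified mRNA was labeled with Cy3-dUTP or Cy5-dUTP and hybridized >12 h at 65° C. to a genome-wide chip; ratio of scanned fluorescence to control.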

Q: With COc1cc(CNC(=O)CCCCC=CC(C)C)ccc1O [(12), 8-methyl-N-vanillyl-6-nonenamide] as the compound, how does the “The level of expressed mRNA in the presence of chemical substance/The level of expressed mRNA in the absence of chemical substance” value (yeast gene YJR121W) read?
A: The value was 0.8.

Q: And the “The level of expressed mRNA in the presence of chemical substance/The level of expressed mRNA in the absence of chemical substance” value (yeast gene YKL003C)?
A: Its value is 0.7.

Q: And the “The level of expressed mRNA in the presence of chemical substance/The level of expressed mRNA in the absence of chemical substance” value (yeast gene YKL016C)?
A: The value was 1.0.

Q: What about the “The level of expressed mRNA in the presence of chemical substance/The level of expressed mRNA in the absence of chemical substance” value (yeast gene YKL141W) of the same compound?
A: Its value is 0.8.

Q: What about the “The level of expressed mRNA in the presence of chemical substance/The level of expressed mRNA in the absence of chemical substance” value (yeast gene YKL142W) of the same compound?
A: Its value is 1.9.

Q: And the “The level of expressed mRNA in the presence of chemical substance/The level of expressed mRNA in the absence of chemical substance” value (yeast gene YKL148C)?
A: Its value is 0.8.

Q: And the “The level of expressed mRNA in the presence of chemical substance/The level of expressed mRNA in the absence of chemical substance” value (yeast gene YKL170W)?
A: The value was 0.8.

Q: And the “The level of expressed mRNA in the presence of chemical substance/The level of expressed mRNA in the absence of chemical substance” value (yeast gene YKL194C)?
A: The value was 0.6.

Q: What about the “The level of expressed mRNA in the presence of chemical substance/The level of expressed mRNA in the absence of chemical substance” value (yeast gene YKR066C) of the same compound?
A: Its value is 0.9.

Q: And the “The level of expressed mRNA in the presence of chemical substance/The level of expressed mRNA in the absence of chemical substance” value (yeast gene YLL041C)?
A: The value was 0.8.

Q: What about the “The level of expressed mRNA in the presence of chemical substance/The level of expressed mRNA in the absence of chemical substance” value (yeast gene YLR038C) of the same compound?
A: The value was 0.6.

Q: And the “The level of expressed mRNA in the presence of chemical substance/The level of expressed mRNA in the absence of chemical substance” value (yeast gene YLR259C)?
A: The value was 0.7.

Q: What about the “The level of expressed mRNA in the presence of chemical substance/The level of expressed mRNA in the absence of chemical substance” value (yeast gene YLR295C) of the same compound?
A: The value was 0.5.

Q: What about the “The level of expressed mRNA in the presence of chemical substance/The level of expressed mRNA in the absence of chemical substance” value (yeast gene YLR304C) of the same compound?
A: Its value is 1.0.

Q: And the “The level of expressed mRNA in the presence of chemical substance/The level of expressed mRNA in the absence of chemical substance” value (yeast gene YLR348C)?
A: Its value is 0.9.

Q: What about the “The level of expressed mRNA in the presence of chemical substance/The level of expressed mRNA in the absence of chemical substance” value (yeast gene YLR395C) of the same compound?
A: The value was 0.6.

Q: And the “The level of expressed mRNA in the presence of chemical substance/The level of expressed mRNA in the absence of chemical substance” value (yeast gene YML054C)?
A: Its value is 1.8.

Q: What about the “The level of expressed mRNA in the presence of chemical substance/The level of expressed mRNA in the absence of chemical substance” value (yeast gene YML120C) of the same compound?
A: The value was 0.9.

Q: What about the “The level of expressed mRNA in the presence of chemical substance/The level of expressed mRNA in the absence of chemical substance” value (yeast gene YML129C) of the same compound?
A: The value was 0.8.

Q: What about the “The level of expressed mRNA in the presence of chemical substance/The level of expressed mRNA in the absence of chemical substance” value (yeast gene YMR023C) of the same compound?
A: The value was 0.7.

Q: And the “The level of expressed mRNA in the presence of chemical substance/The level of expressed mRNA in the absence of chemical substance” value (yeast gene YMR035W)?
A: The value was 0.5.

Q: And the “The level of expressed mRNA in the presence of chemical substance/The level of expressed mRNA in the absence of chemical substance” value (yeast gene YMR083W)?
A: The value was 0.7.

Q: What about the “The level of expressed mRNA in the presence of chemical substance/The level of expressed mRNA in the absence of chemical substance” value (yeast gene YMR089C) of the same compound?
A: The value was 0.8.

Q: What about the “The level of expressed mRNA in the presence of chemical substance/The level of expressed mRNA in the absence of chemical substance” value (yeast gene YMR152W) of the same compound?
A: The value was 1.3.

Q: And the “The level of expressed mRNA in the presence of chemical substance/The level of expressed mRNA in the absence of chemical substance” value (yeast gene YMR203W)?
A: The value was 0.7.

Q: And the “The level of expressed mRNA in the presence of chemical substance/The level of expressed mRNA in the absence of chemical substance” value (yeast gene YMR267W)?
A: The value was 0.8.

Q: What about the “The level of expressed mRNA in the presence of chemical substance/The level of expressed mRNA in the absence of chemical substance” value (yeast gene YNL055C) of the same compound?
A: Its value is 1.7.

Q: What about the “The level of expressed mRNA in the presence of chemical substance/The level of expressed mRNA in the absence of chemical substance” value (yeast gene YNL071W) of the same compound?
A: The value was 1.3.

Q: And the “The level of expressed mRNA in the presence of chemical substance/The level of expressed mRNA in the absence of chemical substance” value (yeast gene YNL073W)?
A: The value was 0.7.

Q: What about the “The level of expressed mRNA in the presence of chemical substance/The level of expressed mRNA in the absence of chemical substance” value (yeast gene YNL104C) of the same compound?
A: Its value is 1.1.

Q: What about the “The level of expressed mRNA in the presence of chemical substance/The level of expressed mRNA in the absence of chemical substance” value (yeast gene YNL256W) of the same compound?
A: The value was 0.6.

Q: What about the “The level of expressed mRNA in the presence of chemical substance/The level of expressed mRNA in the absence of chemical substance” value (yeast gene YOL096C) of the same compound?
A: Its value is 1.2.

Q: And the “The level of expressed mRNA in the presence of chemical substance/The level of expressed mRNA in the absence of chemical substance” value (yeast gene YOR020C)?
A: Its value is 0.8.

Q: What about the “The level of expressed mRNA in the presence of chemical substance/The level of expressed mRNA in the absence of chemical substance” value (yeast gene YOR037W) of the same compound?
A: The value was 1.2.

Q: What about the “The level of expressed mRNA in the presence of chemical substance/The level of expressed mRNA in the absence of chemical substance” value (yeast gene YOR100C) of the same compound?
A: Its value is 0.8.

Q: What about the “The level of expressed mRNA in the presence of chemical substance/The level of expressed mRNA in the absence of chemical substance” value (yeast gene YOR130C) of the same compound?
A: Its value is 0.9.

Q: What about the “The level of expressed mRNA in the presence of chemical substance/The level of expressed mRNA in the absence of chemical substance” value (yeast gene YOR142W) of the same compound?
A: Its value is 0.8.

Q: What about the “The level of expressed mRNA in the presence of chemical substance/The level of expressed mRNA in the absence of chemical substance” value (yeast gene YOR150W) of the same compound?
A: The value was 0.8.

Q: And the “The level of expressed mRNA in the presence of chemical substance/The level of expressed mRNA in the absence of chemical substance” value (yeast gene YOR176W)?
A: Its value is 1.3.

Q: What about the “The level of expressed mRNA in the presence of chemical substance/The level of expressed mRNA in the absence of chemical substance” value (yeast gene YOR187W) of the same compound?
A: The value was 0.8.

Q: And the “The level of expressed mRNA in the presence of chemical substance/The level of expressed mRNA in the absence of chemical substance” value (yeast gene YOR316C)?
A: Its value is 1.1.

Q: And the “The level of expressed mRNA in the presence of chemical substance/The level of expressed mRNA in the absence of chemical substance” value (yeast gene YPL040C)?
A: The value was 0.9.

Q: What about the “The level of expressed mRNA in the presence of chemical substance/The level of expressed mRNA in the absence of chemical substance” value (yeast gene YPL134C) of the same compound?
A: The value was 0.8.

Q: What about the “The level of expressed mRNA in the presence of chemical substance/The level of expressed mRNA in the absence of chemical substance” value (yeast gene YPL135W) of the same compound?
A: The value was 1.1.

Q: And the “The level of expressed mRNA in the presence of chemical substance/The level of expressed mRNA in the absence of chemical substance” value (yeast gene YPL215W)?
A: Its value is 0.7.

Q: What about the “The level of expressed mRNA in the presence of chemical substance/The level of expressed mRNA in the absence of chemical substance” value (yeast gene YPL262W) of the same compound?
A: The value was 1.1.

Q: What about the “The level of expressed mRNA in the presence of chemical substance/The level of expressed mRNA in the absence of chemical substance” value (yeast gene YPR024W) of the same compound?
A: Its value is 0.8.

Q: What about the “The level of expressed mRNA in the presence of chemical substance/The level of expressed mRNA in the absence of chemical substance” value (yeast gene YPR037C) of the same compound?
A: The value was 0.9.

Q: What about the “The level of expressed mRNA in the presence of chemical substance/The level of expressed mRNA in the absence of chemical substance” value (yeast gene YPR047W) of the same compound?
A: Its value is 0.9.

Q: What about the “The level of expressed mRNA in the presence of chemical substance/The level of expressed mRNA in the absence of chemical substance” value (yeast gene YPR134W) of the same compound?
A: The value was 0.9.
